Data taken from patent publication US12391679B2, “Benzamide-substituted bicyclic imidazo- and pyrazolo-fused -pyridine, -pyrimide, and -pyridazine compounds for treatment of inflammatory diseases” (ONCO3R Therapeutics BV, priority 2019, dated 2025).

How the values were obtained:
Format in all cases: biochemical
SIK1 = molecular target: T1, SIK1 (Homo sapiens, UniProt P57059); assay: ADP-Glo kinase assay, SIK1
T1 construct: purchased Carna Biosciences 02-131
Experimental: (§1) The ADP-Glo™ kinase assay is a luminescent technology assay which measures the ADP formed from a kinase reaction. […] In a second step the kinase reactions are terminated and all the remaining ATP is depleted. In a final step the ADP is converted into ATP and this newly synthesized ATP is measured by using a luciferase/luciferin reaction. The generated light is measured using an Envision plate reader, wherein the luminescent signal obtained positively correlates with the kinase activity.
(§2) 1% DMSO and 10 μM staurosporine final concentrations are used as negative and positive controls.
(§3) 2 μL enzyme-substrate mixture is added to the assay plates.
(§4) The reaction is started by adding 2 μL diluted ATP on the assay plates. Plates are centrifuged for a few seconds at 1000 rpm and gently shaken for […] followed by an incubation at RT for 120 min.
(§5) The reactions are stopped and the unconsumed ATP is depleted by adding 5 μL ADP-Glo Reagent (Promega, Cat #V9120) to the reaction. The plates are centrifuged for a few seconds at 1000 rpm and incubated at RT for 40 min (ATP depletion).
(§6) The ADP is converted to ATP and luciferase and luciferin is introduced to detect ATP by adding 10 μL Kinase Detection Reagent (Promega, Cat #V913B+V914r) to the reaction. The plates are centrifuged for a few seconds at 1000 rpm and incubated at RT for 30 min (ADP detection).
(§7) Luminescence is measured on an Envision plate reader (PerkinElmer Inc.).

SIK2 = molecular target: T2, SIK2 (Homo sapiens, UniProt Q9H0K1); assay: ADP-Glo kinase assay, SIK2
T2 construct: purchased ThermoFisher Scientific PV4792
Experimental: as §1, §2, §3, §4, §5, §6, §7

SIK3 = molecular target: T3, SIK3 (Homo sapiens, UniProt Q9Y2K2); assay: ADP-Glo kinase assay, SIK3
T3 construct: purchased SignalChem S12-11G-100
Experimental: as §1, §2, §3, §4, §5, §6, §7

T1 sequence (P57059 whole entry): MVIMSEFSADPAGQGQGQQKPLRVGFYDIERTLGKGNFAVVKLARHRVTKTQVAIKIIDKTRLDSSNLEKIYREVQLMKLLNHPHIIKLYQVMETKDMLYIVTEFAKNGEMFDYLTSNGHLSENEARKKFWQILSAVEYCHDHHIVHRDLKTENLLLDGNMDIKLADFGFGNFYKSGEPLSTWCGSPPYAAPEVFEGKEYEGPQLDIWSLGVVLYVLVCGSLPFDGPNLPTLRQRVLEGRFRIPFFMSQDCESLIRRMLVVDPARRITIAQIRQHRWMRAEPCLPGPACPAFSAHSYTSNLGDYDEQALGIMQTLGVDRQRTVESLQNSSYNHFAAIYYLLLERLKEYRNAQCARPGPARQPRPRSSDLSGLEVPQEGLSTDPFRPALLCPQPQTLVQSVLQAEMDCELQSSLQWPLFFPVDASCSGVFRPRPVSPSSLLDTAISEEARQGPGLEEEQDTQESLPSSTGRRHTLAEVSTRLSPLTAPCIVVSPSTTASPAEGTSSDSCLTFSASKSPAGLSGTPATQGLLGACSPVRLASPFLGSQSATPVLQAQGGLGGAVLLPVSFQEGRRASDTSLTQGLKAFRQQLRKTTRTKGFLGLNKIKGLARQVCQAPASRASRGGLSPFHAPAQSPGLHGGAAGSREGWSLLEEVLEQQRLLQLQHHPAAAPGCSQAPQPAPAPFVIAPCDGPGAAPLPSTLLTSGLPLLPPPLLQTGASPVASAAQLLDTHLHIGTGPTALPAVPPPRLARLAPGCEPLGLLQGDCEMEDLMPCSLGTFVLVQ
T3 sequence (Q9Y2K2 59-365 limits assumed): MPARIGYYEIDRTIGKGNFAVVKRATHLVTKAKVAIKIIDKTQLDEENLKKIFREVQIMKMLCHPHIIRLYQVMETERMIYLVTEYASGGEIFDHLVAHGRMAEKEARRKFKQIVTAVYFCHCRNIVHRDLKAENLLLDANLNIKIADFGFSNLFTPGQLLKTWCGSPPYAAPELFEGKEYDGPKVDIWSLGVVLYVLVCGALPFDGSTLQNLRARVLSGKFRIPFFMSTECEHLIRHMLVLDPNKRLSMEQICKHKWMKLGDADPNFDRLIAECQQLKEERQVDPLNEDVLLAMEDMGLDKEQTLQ
T2 sequence (Q9H0K1 whole entry): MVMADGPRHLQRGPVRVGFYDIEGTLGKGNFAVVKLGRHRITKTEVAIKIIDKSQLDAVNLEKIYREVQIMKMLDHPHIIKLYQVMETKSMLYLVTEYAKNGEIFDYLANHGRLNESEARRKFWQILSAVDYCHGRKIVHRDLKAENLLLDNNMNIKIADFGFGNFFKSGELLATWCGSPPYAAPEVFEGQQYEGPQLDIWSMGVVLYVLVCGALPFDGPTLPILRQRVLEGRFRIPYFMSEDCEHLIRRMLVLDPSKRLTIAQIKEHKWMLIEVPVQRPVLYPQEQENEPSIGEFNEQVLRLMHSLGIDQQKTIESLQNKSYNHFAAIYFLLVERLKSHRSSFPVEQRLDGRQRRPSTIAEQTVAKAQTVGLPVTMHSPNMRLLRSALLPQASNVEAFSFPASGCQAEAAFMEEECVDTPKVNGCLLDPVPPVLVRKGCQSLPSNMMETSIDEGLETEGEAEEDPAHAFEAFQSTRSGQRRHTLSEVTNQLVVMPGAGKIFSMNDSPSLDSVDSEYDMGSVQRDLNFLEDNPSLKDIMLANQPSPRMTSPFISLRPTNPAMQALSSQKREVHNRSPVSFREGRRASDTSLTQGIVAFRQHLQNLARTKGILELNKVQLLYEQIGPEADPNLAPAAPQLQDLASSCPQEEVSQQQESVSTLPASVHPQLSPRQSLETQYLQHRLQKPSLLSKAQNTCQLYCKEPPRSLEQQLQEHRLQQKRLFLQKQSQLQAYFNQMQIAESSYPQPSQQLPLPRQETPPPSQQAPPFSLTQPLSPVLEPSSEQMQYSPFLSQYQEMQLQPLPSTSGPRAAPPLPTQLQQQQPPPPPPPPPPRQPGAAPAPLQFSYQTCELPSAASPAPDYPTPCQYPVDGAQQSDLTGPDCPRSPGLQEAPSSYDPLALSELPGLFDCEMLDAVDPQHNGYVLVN

Compound	IC50 (SIK1) [nM]	IC50 (SIK2) [nM]	IC50 (SIK3) [nM]
COc1cc(-c2cnc3cc(C(C)(C)C#N)ccn23)cc(OC(F)F)c1C(=O)N1CC2(CN(C)C2)C1 [Cpd 99, 2-[3-[3-(difluoromethoxy)-5-methoxy-4-(6-methyl-2,6-diazaspiro[3.3]heptane-2-carbonyl)phenyl]imidazo[1,2-a]pyridin-7-yl]-2-methyl-propanenitrile]	> 500	> 500	100 to 500
COc1cc(-c2cnc3cc(C(C)(C)C#N)ccn23)cc(OC(F)F)c1C(=O)NC(C1CC1)C(F)(F)F (stereo not drawn) [Cpd 100, 4-[7-(1-cyano-1-methyl-ethyl)imidazo[1,2-a]pyridin-3-yl]-N-(1-cyclopropyl-2,2,2-trifluoro-ethyl)-2-(difluoromethoxy)-6-methoxy-benzamide]	> 500	> 500	> 500
COc1cc(-c2cnc3cc(C(C)(C)C#N)ccn23)cc(OC(F)F)c1C(=O)NC(C)C1CC1 (stereo not drawn) [Cpd 101, 4-[7-(1-cyano-1-methyl-ethyl)imidazo[1,2-a]pyridin-3-yl]-N-(1-cyclopropylethyl)-2-(difluoromethoxy)-6-methoxy-benzamide]	> 500	> 500	100 to 500
COc1cc(-c2cnc3cc(C(C)(C)C#N)ccn23)cc(OC(F)F)c1C(=O)NCC1COC1 [Cpd 102, 4-[7-(1-cyano-1-methyl-ethyl)imidazo[1,2-a]pyridin-3-yl]-2-(difluoromethoxy)-6-methoxy-N-(oxetan-3-ylmethyl)benzamide]	> 500	> 500	10 to 100
COc1cc(-c2cnc3cc(C(C)(C)C#N)ccn23)cc(OC(F)F)c1C(=O)N1CC(N)C1 [Cpd 103, 2-[3-[4-(3-aminoazetidine-1-carbonyl)-3-(difluoromethoxy)-5-methoxy-phenyl]imidazo[1,2-a]pyridin-7-yl]-2-methyl-propanenitrile]	> 500	> 500	10 to 100
COc1cc(-c2cnc3cc(C(C)(C)C#N)ccn23)cc(OC(F)F)c1C(=O)N1CCC1C (stereo not drawn) [Cpd 104, 2-[3-[3-(difluoromethoxy)-5-methoxy-4-(2-methylazetidine-1-carbonyl)phenyl]imidazo[1,2-a]pyridin-7-yl]-2-methyl-propanenitrile]	> 500	> 500	> 500
COc1cc(-c2cnc3cc(C(C)(C)C#N)ccn23)cc(OC(F)F)c1C(=O)N1CCC1CO (stereo not drawn) [Cpd 105, 2-[3-[3-(difluoromethoxy)-4-[2-(hydroxymethyl)azetidine-1-carbonyl]-5-methoxy-phenyl]imidazo[1,2-a]pyridin-7-yl]-2-methyl-propanenitrile]	> 500	> 500	100 to 500
COc1cc(-c2cnc3cc(C4CCOCC4)ccn23)cc(OC(F)F)c1C(=O)NC1CC1 [Cpd 108, N-cyclopropyl-2-(difluoromethoxy)-6-methoxy-4-(7-tetrahydropyran-4-ylimidazo[1,2-a]pyridin-3-yl)benzamide]	100 to 500	10 to 100	0.01 to 10
COc1cc(-c2cnc3cc(C4CCOCC4)ncn23)cc(OC(F)F)c1C(=O)NC1CC1 [Cpd 109, N-cyclopropyl-2-(difluoromethoxy)-6-methoxy-4-(7-tetrahydropyran-4-ylimidazo[1,2-c]pyrimidin-3-yl)benzamide]	> 500	> 500	> 500
COc1cc(-c2cnc3cc(C4(C#N)CNC4)ccn23)cc(OC(F)F)c1C(=O)NC1CC1 [Cpd 110, 4-[7-(3-cyanoazetidin-3-yl)imidazo[1,2-a]pyridin-3-yl]-N-cyclopropyl-2-(difluoromethoxy)-6-methoxy-benzamide]	> 500	> 500	10 to 100
COc1cc(-c2cnc3cc(C(C)(C)C#N)ccn23)cc2c1C(=O)NC2 [Cpd 111, 2-[3-(7-methoxy-1-oxo-isoindolin-5-yl)imidazo[1,2-a]pyridin-7-yl]-2-methyl-propanenitrile]	> 500	> 500	10 to 100
COc1cc(-c2cnn3cc(C4CCOCC4)ccc23)cc(OC(F)F)c1C(=O)NC1CC1 [Cpd 112, N-cyclopropyl-2-(difluoromethoxy)-6-methoxy-4-(6-tetrahydropyran-4-ylpyrazolo[1,5-a]pyridin-3-yl)benzamide]	> 500	10 to 100	0.01 to 10
COc1cc(-c2cnc3cc(C4(C(=O)O)CC4)ccn23)cc(OC(F)F)c1C(=O)NC1CC1 [Cpd 114, 1-[3-[4-(cyclopropylcarbamoyl)-3-(difluoromethoxy)-5-methoxy-phenyl]imidazo[1,2-a]pyridin-7-yl]cyclopropanecarboxylic acid]	> 500	> 500	10 to 100
COc1cc(-c2cnc3cc(C4(CO)CC4)ccn23)cc(OC(F)F)c1C(=O)NC1CC1 [Cpd 115, N-cyclopropyl-2-(difluoromethoxy)-4-[7-[1-(hydroxymethyl)cyclopropyl]imidazo[1,2-a]pyridin-3-yl]-6-methoxy-benzamide]	100 to 500	10 to 100	0.01 to 10
COc1cc(-c2cnc3cc(C(C)(C)OC)ncn23)cc(OC(F)F)c1C(=O)NC1CC1 [Cpd 118, N-cyclopropyl-2-(difluoromethoxy)-6-methoxy-4-[7-(1-methoxy-1-methyl-ethyl)imidazo[1,2-c]pyrimidin-3-yl]benzamide]	> 500	> 500	10 to 100
COc1cc(-c2cnc3cc(C(C)(C)O)ncn23)cc(OC(F)F)c1C(=O)NC1CC1 [Cpd 119, N-cyclopropyl-2-(difluoromethoxy)-4-[7-(1-hydroxy-1-methyl-ethyl)imidazo[1,2-c]pyrimidin-3-yl]-6-methoxy-benzamide]	> 500	> 500	100 to 500
COc1cc(-c2cnc3cc(C4(C#N)CN(C(C)=O)C4)ccn23)cc(OC(F)F)c1C(=O)NC1CC1 [Cpd 122, 4-[7-(1-acetyl-3-cyano-azetidin-3-yl)imidazo[1,2-a]pyridin-3-yl]-N-cyclopropyl-2-(difluoromethoxy)-6-methoxy-benzamide]	> 500	> 500	10 to 100
CCC(O)(CC)c1ccn2c(-c3cc(OC)c(C(=O)NC4CC4)c(OC(F)F)c3)cnc2c1 [Cpd 124, N-cyclopropyl-2-(difluoromethoxy)-4-[7-(1-ethyl-1-hydroxy-propyl)imidazo[1,2-a]pyridin-3-yl]-6-methoxy-benzamide]	> 500	> 500	100 to 500
COc1cc(-c2cnc3cc(C4(C#N)COC4)ccn23)cnc1C(=O)NCC(F)(F)F [Cpd 125, 5-[7-(3-cyanooxetan-3-yl)imidazo[1,2-a]pyridin-3-yl]-3-methoxy-N-(2,2,2-trifluoroethyl)pyridine-2-carboxamide]	> 500	> 500	> 500
CCC(CC)(OC)c1ccn2c(-c3cc(OC)c(C(=O)NC4CC4)c(OC(F)F)c3)cnc2c1 [Cpd 126, N-cyclopropyl-2-(difluoromethoxy)-4-[7-(1-ethyl-1-methoxy-propyl)imidazo[1,2-a]pyridin-3-yl]-6-methoxy-benzamide]	> 500	> 500	10 to 100
COc1cc(-c2cnc3cc(C(C)(C)C#N)ccn23)cnc1C(=O)NCC(F)(F)F [Cpd 127, 5-[7-(1-cyano-1-methyl-ethyl)imidazo[1,2-a]pyridin-3-yl]-3-methoxy-N-(2,2,2-trifluoroethyl)pyridine-2-carboxamide]	> 500	> 500	100 to 500
COC(=O)C(F)(F)c1ccn2c(-c3cc(OC)c(C(=O)NC4CC4)c(OC(F)F)c3)cnc2c1 [Cpd 131, methyl 2-[3-[4-(cyclopropylcarbamoyl)-3-(difluoromethoxy)-5-methoxy-phenyl]imidazo[1,2-a]pyridin-7-yl]-2,2-difluoro-acetate]	> 500	> 500	0.01 to 10
COc1cc(-c2cnc3cc(C(F)(F)C(=O)O)ccn23)cc(OC(F)F)c1C(=O)NC1CC1 [Cpd 132, 2-[3-[4-(cyclopropylcarbamoyl)-3-(difluoromethoxy)-5-methoxy-phenyl]imidazo[1,2-a]pyridin-7-yl]-2,2-difluoro-acetic acid]	100 to 500	100 to 500	0.01 to 10
COc1cc(-c2cnc3cc(C(C)(O)C4CCOCC4)ccn23)cc(OC(F)F)c1C(=O)NC1CC1 (stereo not drawn) [Cpd 134, N-cyclopropyl-2-(difluoromethoxy)-4-[7-(1-hydroxy-1-tetrahydropyran-4-yl-ethyl)imidazo[1,2-a]pyridin-3-yl]-6-methoxy-benzamide]	> 500	> 500	10 to 100
COc1cc(-c2cnc3cc(C4(C(=O)N5CCOCC5)CC4)ccn23)cc(OC(F)F)c1C(=O)NC1CC1 [Cpd 141, N-cyclopropyl-2-(difluoromethoxy)-6-methoxy-4-[7-[1-(morpholine-4-carbonyl)cyclopropyl]imidazo[1,2-a]pyridin-3-yl]benzamide]	> 500	> 500	100 to 500
